From BindingDB's records for doi:10.1021/jm00398a022 (University of Wisconsin, 1988)
pKi: −log10 of the molar value.

Target: Cathepsin D (Oryctolagus cuniculus)
Experiment: Inhibition of rabbit liver cathepsin D at pH 4.0

pKi: 5.46
Structure (SMILES): COC(=O)[C@H](Cc1ccccc1)NC(=O)[C@H](CC(C)C)NC(=O)CC(O)[C@H](CC(C)C)NC(=O)[C@H](Cc1c[nH]cn1)NC(=O)COC(=O)C(C)(C)C (stereo partly drawn) [POA-His-Sta-Leu-PheOMe]
